Data set [1] can be described thus: Comparison of solubilities (saturated concentration by HPLC). It is filed as physicochemical. The following applies: for solubility thermodynamic at 16 h: thermodynamic from solid. Here is the method: The thus-obtained ursolic acid phosphate was compared to ursolic acid (control) on their solubilities. The mixture was stirred for 16 hours and was passed through a 0.45-μm filter. After that, concentration measurement was performed by HPLC.

Data set [2] concerns Hartley white guinea pigs. Description: Guinea pig maximization test (skin sensitivity). It is filed as in vivo. The following applies: challenge 5%, 0.5%, Draize criteria. Here is the method: A guinea pig maximization test was performed using ten Hartley white guinea pigs to examine the presence or absence of the skin sensitivity of ursolic acid phosphate to the guinea pigs. An emulsified product containing distilled water and Freund's complete adjuvant (FCA) in equal volumes, a test substance (dissolved in olive oil, 5%), and a mixture including a test substance and FCA in equal volumes were separately injected intracutaneously to five guinea pigs in two sites with 0.1 mL, respectively. The next day, the hair of the intracutaneous injection sites was shaved, and a mixture of 10% sodium lauryl sulfate/petrolatum was applied thereto. The day after that, 0.1 ml of 5% ursolic acid phosphate (dissolved in olive oil) was applied with a patch for 48 hours to the shaved sites to complete induction of sensitization. After completion of induction of sensitization, a 10-day rest period was provided. After completion of the period, the hair in back untreated sites was shaved. Then, each of 0.1 ml of 5%, 0.5%, and 0% ursolic acid phosphate (dissolved in olive oil) was applied with a patch for 24 hours to respective three sites to […]. Thirty minutes and 24 hours after patch removal, skin reactions were observed. […]

Where two headings read alike, the source gives them in different places.

Take `C[C@H]1[C@H](C)CC[C@]2(C(=O)O)CC[C@]3(C)C(=CC[C@@H]4[C@@]5(C)CC[C@H](O)C(C)(C)[C@@H]5CC[C@]43C)[C@H]12` [ursolic acid, reference compound]: the Saturated concentration in data set [1] (Solvent 8% EtOH/0.1 M phosphate Buffer (pH7.0), stirred 16 hours, 0.45-μm filter, HPLC) is less than 1 µg/mL; in data set [1] (Solvent 8% EtOH/0.1 M phosphate Buffer (pH9), stirred 16 hours, 0.45-μm filter, HPLC) it was less than 1 µg/mL; in data set [1] (Solvent 8% EtOH/DW, stirred 16 hours, 0.45-μm filter, HPLC), less than 1 µg/mL; in data set [1] (Solvent EtOH, stirred 16 hours, 0.45-μm filter, HPLC), less than 1 µg/mL. Besides, the solubility thermodynamic at 16 h in data set [1] (pH 9, aqueous buffer, Solvent 0.1 M phosphate Buffer (pH9), stirred 16 hours, 0.45-μm filter, HPLC, read-out: Saturated concentration) was less than 1 µg/mL; in data set [1] (water, Solvent DW, stirred 16 hours, 0.45-μm filter, HPLC, read-out: Saturated concentration), less than 1 µg/mL.

Turning to `C[C@H]1[C@H](C)CC[C@]2(C(=O)O)CC[C@]3(C)C(=CC[C@@H]4[C@@]5(C)CCC(OP(=O)(O)O)C(C)(C)[C@@H]5CC[C@]43C)[C@H]12` (stereo partly shown) [ursolic acid phosphate, Ursolic acid phosphate], the “solubility compared to that of ursolic acid” value in data set [1] is “improved”. Also, the Saturated concentration in data set [1] (16 h, pH 7) worked out at 31.1 µg/mL; in data set [1] (16 h, pH 9) it was 7.5 µg/mL. Also, the solubility thermodynamic at 16 h in data set [1] (pH 9, aqueous buffer) turned out to be 120 µg/mL; in data set [1] (water), 20.1 µg/mL. In addition, the “skin reactions, sample-administered group versus control group” value in data set [2] (0% in olive oil, patch 24 hours) was “no differences”. For the same compound, in data set [2] (induction with 5% in olive oil, 0% patch 24 hours, observed 30 minutes and 24 hours after patch removal), the sensitization to skin result is “not observed”.

These data come from patent US7718635B2, “Triterpenic acid derivative and preparation for external application for skin comprising the same” (Pola Chemical Industries Inc., priority 2005, dated 2010).
